According to US4654342A, “6-(cyanoguanidinophenyl)pyridazinones as cardiac stimulants” (Smith Kline & French Laboratories Ltd., priority 1984, dated 1987):
Like-named read-outs stand apart in the source and are kept apart here.

Tests used:
Type (III) PDE = target: T1, Type (III) PDE (Cavia porcellus, UniProt H0VIU9); assay: Phosphodiesterase Type (III) inhibition; assay type: biochemical, guinea pig; details: 1 μm cyclic AMP, 10 minutes; 10 minutes pre-incubation; read-out: IC50, inhibition of `low Km` Type (III) PDE activity
T1 construct: phosphodiesterases (PDE) isolated from guinea pig ventricle; from tissue; host or cells: guinea pig ventricle; forms separated by ion-exchange chromatography
T1 sequence (H0VIU9 1-1132): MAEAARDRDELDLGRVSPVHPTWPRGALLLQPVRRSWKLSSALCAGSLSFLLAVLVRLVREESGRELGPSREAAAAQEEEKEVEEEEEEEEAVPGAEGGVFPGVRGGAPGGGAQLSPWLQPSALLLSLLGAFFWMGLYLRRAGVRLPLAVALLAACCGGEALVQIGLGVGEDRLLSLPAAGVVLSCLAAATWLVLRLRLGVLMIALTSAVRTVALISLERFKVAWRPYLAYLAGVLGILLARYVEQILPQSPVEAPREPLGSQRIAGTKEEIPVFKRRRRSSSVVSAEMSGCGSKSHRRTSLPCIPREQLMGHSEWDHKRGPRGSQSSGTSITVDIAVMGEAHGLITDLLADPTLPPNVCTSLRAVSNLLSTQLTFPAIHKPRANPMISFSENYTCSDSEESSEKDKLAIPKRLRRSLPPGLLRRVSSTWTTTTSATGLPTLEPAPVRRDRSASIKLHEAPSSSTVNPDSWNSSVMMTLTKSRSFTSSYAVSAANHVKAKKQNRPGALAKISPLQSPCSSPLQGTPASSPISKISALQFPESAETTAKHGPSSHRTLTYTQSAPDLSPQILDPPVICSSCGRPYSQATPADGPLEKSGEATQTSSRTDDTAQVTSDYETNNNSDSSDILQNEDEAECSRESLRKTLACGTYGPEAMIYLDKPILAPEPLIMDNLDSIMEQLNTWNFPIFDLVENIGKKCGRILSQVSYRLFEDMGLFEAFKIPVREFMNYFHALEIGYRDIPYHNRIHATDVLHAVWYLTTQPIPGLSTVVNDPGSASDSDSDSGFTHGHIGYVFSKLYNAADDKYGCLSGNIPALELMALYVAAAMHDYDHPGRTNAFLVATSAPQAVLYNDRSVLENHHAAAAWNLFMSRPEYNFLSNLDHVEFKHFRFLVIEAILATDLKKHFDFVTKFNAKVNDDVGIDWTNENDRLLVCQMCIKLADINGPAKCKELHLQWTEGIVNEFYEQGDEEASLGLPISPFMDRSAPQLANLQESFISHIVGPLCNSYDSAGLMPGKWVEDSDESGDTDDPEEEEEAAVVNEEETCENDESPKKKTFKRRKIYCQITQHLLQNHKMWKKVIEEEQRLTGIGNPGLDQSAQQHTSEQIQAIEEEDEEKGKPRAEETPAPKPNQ
Method: The products of Example 13 were tested for selectivity as inhibitors of the phosphodiesterases (PDE) isolated from guinea pig ventricle. Three forms of PDE were isolated by ion-exchange chromatography using the method of Thompson et al, Adv. Nucleotide Research, vol 10, p 69, Brooker et al (Eds), Raven Press, 1979.
In separate experiments with the (-)-isomer, the (+)-isomer and racemic material, following a 10 minutes pre-incubation of the test compound with Type (III) PDE, PDE activity was measured at 1 μm cyclic AMP for 10 minutes (using a modification of the method of Davis and Daly, Journal of Cyclic Nucleotide Research, vol 5, p 65, Raven Press, 1979). IC50 values were obtained for inhibition of `low Km` Type (III) PDE activity: […]

right ventricular strips = assay: Cardiac stimulant activity in vitro, guinea pig ventricular strips (force of contraction)
Method: The compounds of formula (I) and their pharmaceutically acceptable salts are tested for cardiac stimulant activity following a procedure based on that of S. C. Verma and J. H. McNeill (J.Pharm & Exp. Therapeutics, 200, 352-362 (1977)). Guinea pigs (500-700 g) of either sex are sacrificed and the hearts are quickly removed and transferred to a dissecting dish containing oxygenated bathing fluid. While in the bathing medium, the right ventricle is cut into two strips. The strips are each suspended in a 50 ml bath containing Krebs Henseleit solution at 37° C., and the bath is bubbled with 95% oxygen and 5% carbon dioxide. The ventricular strips are electrically stimulated at a frequency of 1.0 Hz, at double the threshold voltage. A resting tension of 1.0 g is applied to the strips and the tension is kept constant by readjustment during an equilibration period of 60 minutes. The bathing fluid is frequently changed during this period. When a steady base line is obtained, a compound under test is added to the bathing fluid and a cumulative concentration response curve is plotted. The compounds for use in the present invention which were tested gave a 50% increase in the force of contraction of the ventricular strips at concentrations in the bathing fluid of less than 10^-4 molar, thus showing that they have activity as positive inotropic agents.

hindquarters blood flow = assay: Vasodilator activity, anaesthetised rat hindquarters autoperfused at constant blood pressure; assay type: in vivo; details: anaesthetised rat hindquarters screen
Description: The dose to increase hindquarters blood flow by 50% was 4.6 μmol/Kg.

[1] = test system: left ventricular dp/dt max; assay: Cardiac stimulant activity in vivo, anaesthetised cats (left ventricular dp/dt max); parameters: species or system cat; key to Relative Duration: ***: long; **: medium; *: short; details: for positive inotropism, relative to the (+)-isomer: anaesthetised cat screen; for ED50: Felis catus, intravenous, dose to increase left ventricular dp/dt max by 50%, anaesthetised cats; for Relative Duration: estimated in anaesthetised cats following i.v. administration
Description: The dose to increase left ventricular dp/dt max by 50% is given as the ED50.

[2] = test system: hindquarters perfusion pressure; assay: Vasodilator activity, anaesthetised cat hindquarters autoperfused at constant blood flow; assay type: in vivo; details: for vasodilatation, relative to the (+)-isomer: anaesthetised cat screen; for ED15: Felis catus, anaesthetised cat, constant blood flow, read-out: dose to decrease hindquarters perfusion pressure (vasodilatation) by 15%
Method: The compounds of Examples 3, 4, 5 and 8 were tested in autoperfused anaesthetised cat hindquarters (autoperfused at constant blood flow). The doses to decrease hindquarters perfusion pressure (vasodilatation) by 15% are given below: […]

[3] = test system: left ventricular dp/dt max; assay: Cardiac stimulant activity in vivo, conscious dogs (left ventricular dp/dt max); parameters: species or system dog
Method: Oral administration caused positive inotropic responses at doses of 0.25 mg/kg and below. […] Therefore this compound is particularly beneficial with regard to `force-rate` selectivity.

[4] = in vitro, read-out: EC50 value, inotropic activity on guinea pig ventricular strip
[5] = Cavia porcellus, 50% increase in force of contraction, guinea pig ventricular strips, read-out: EC50 × 10^-6 M

SMILES	IC50 (Type (III) PDE) [µM]	EC50 (right ventricular strips; [4]) [µM]	EC50 (right ventricular strips; [5]) [µM]	ED50 [1] [µmol/kg]	Relative Duration [1]	ED15 [2] [mg/kg]	also measured
CC1CC(=O)NN=C1c1ccc(N)cc1 (racemic) [racemate, 6-(4-aminophenyl)-5-methyl-4,5-dihydro-3(2H)-pyridazinone]	37 ± 12.9	–	–	–	–	–	–
CC1CC(=O)NN=C1c1ccc(N)cc1 (single isomer, unassigned; (+)) [(+)-isomer, (+)-6-(4-aminophenyl)-5-methyl-4,5-dihydro-3(2H)-pyridazinone]	207 ± 88	11.3	–	–	–	–	–
CC1CC(=O)NN=C1c1ccc(N)cc1 (single isomer, unassigned; (-)) [(-)-isomer, (-)-6-(4-aminophenyl)-5-methyl-4,5-dihydro-3(2H)-pyridazinone]	9.6 ± 3.4	1.4	–	–	–	–	positive inotropism, relative to the (+)-isomer [1]: more active than the (+)-isomer; vasodilatation, relative to the (+)-isomer [2]: more active than the (+)-isomer
Nc1cc(-c2ccncc2)c[nH]c1=O [Amrinone, reference compound]	–	–	15	5.6	*	–	activity relative to compound of Example 1 [3]: less active; duration relative to compound of Example 1 [3]: of shorter duration
CCCCNC(=NC#N)Nc1ccc(C2=NNC(=O)CC2C)cc1 (stereo not drawn) [Example 5, 6-[4-(N^3 -Butyl-N^2-cyanoguanidino)phenyl]-5-methyl-4,5-dihydro-3(2H)-pyridazinone]	–	–	8.5	0.31	**	0.13	–
CNC(=NC#N)Nc1ccc(C2=NNC(=O)CC2)cc1 [Example 8, 6-[4-(N^3 -Methyl-N^2-cyanoguanidino)phenyl]-4,5-dihydro3(2H)-pyridazinone]	–	–	–	1.6	**	1	activation at 31.6 µM (right ventricular strips; Cavia porcellus, at 31.6 × 10^-6 M, read-out: increase in force of contraction (printed in EC50 column)): 40%

Now from value to compound, other results behind:

IC50 (Type (III) PDE) [µM]	EC50 (right ventricular strips; [4]) [µM]	EC50 (right ventricular strips; [5]) [µM]	SMILES	ED50 [1] [µmol/kg]	Relative Duration [1]	ED15 [2] [mg/kg]	also measured
11.3 ± 5.4	4.3	–	CNC(=NC#N)Nc1ccc(C2=NNC(=O)CC2C)cc1 (single isomer, unassigned; (+)) [Example 15, (+)-6-[4-(N^3 -Methyl-N^2-cyanoguanidino)phenyl]-5-methyl-4,5-dihydro-3(2H)-pyridazinone]	–	–	–	dose to increase hindquarters blood flow by 50% (hindquarters blood flow): 8.6 µM/kg
1.7 ± 1	0.71	–	CNC(=NC#N)Nc1ccc(C2=NNC(=O)CC2C)cc1 (single isomer, unassigned; (-)) [Example 14, (-)-6-[4-(N^3 -Methyl-N^2-cyanoguanidino)phenyl]-5-methyl-4,5-dihydro-3(2H)-pyridazinone]	–	–	–	positive inotropism, relative to the (+)-isomer [1]: more active than the corresponding (+)-isomer of Example 15; vasodilatation, relative to the (+)-isomer [2]: more active than the corresponding (+)-isomer of Example 15; dose to increase hindquarters blood flow by 50% (hindquarters blood flow): 2.4 µM/kg
–	–	1.4	CCNC(=NC#N)Nc1ccc(C2=NNC(=O)CC2C)cc1 (stereo not drawn) [Example 3, 6-[4-(N^3 -Ethyl-N^2-cyanoguanidino)phenyl]-5-methyl-4,5-dihydro-3(2H)-pyridazinone]	0.2	***	0.044	–
–	–	0.8	CC(C)NC(=NC#N)Nc1ccc(C2=NNC(=O)CC2C)cc1 (stereo not drawn) [Example 4, 6-[4-(N^3 -Isopropyl-N^2-cyanoguanidino)phenyl]-5-methyl-4,5-dihydro-3(2H)-pyridazinone]	0.2	**	0.082	–
–	–	1.4	CC1CC(=O)NN=C1c1ccc(NC(N)=NC#N)cc1 (stereo not drawn) [Example 6, 6-[4-(N^2 -Cyanoguanidino)phenyl]-5-methyl-4,5-dihydro-3(2H)-pyridazinone]	0.7	***	–	–
